The values that follow come from ChEMBL document CHEMBL1201862, “PubChem BioAssay data set” (2004).

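Test compounds were applied to cells in 96-well plates for 48 hours at 5 doses. GI50 marks 50% less growth.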 Active and inactive are the calls of the source. No stated cut-off is given here; in the data, active = GI50 up to about 1.1 µM and inactive = higher.

Assay in all cases: NCI tumour cell line growth inhibition, 48 h
Test [1] deals with A498.
In test [2] the test system is ACHN.
In test [3] the test system is OVCAR-4.
Test [4] deals with HCC 2998.
In test [5] the test system is UO-31.
Test [6] has as its system SF-295.
Test [7] concerns OVCAR-5.
Test [8] concerns OVCAR-8.
In test [9] the test system is HCT-15.
The subject of test [10] is SF-268.
Test [11] relates to SNB-19.
For test [12], the system named is SK-MEL-2.
Test [13] concerns KM12.
Test [14] relates to HCT-116.
Test [15] has as its system SK-MEL-5.
The test system of test [16] is LOX IMVI.
Test [17] deals with Malme-3M.
The subject of test [18] is SK-MEL-28.
The subject of test [19] is K562.

For the molecule `CN(C)/C=C/C(=O)c1cccc(C(=O)/C=C/N(C)C)n1`, the GI50 in test [1], in test [2], in [3], in [4], in test [5] and in [6] was > 100 µM (inactive) each time. Besides, the GI50 was > 100 µM (inactive) in test [7]; 80.4 µM (inactive) in [8]; > 100 µM in [9]; > 100 µM (inactive) in test [10]; > 100 µM (inactive) in test [11]; > 100 µM (inactive) in test [12]. Also, the GI50 in test [13], in test [14], in test [15], in [16], in test [17] and in test [18] was > 100 µM (inactive) in each case. Further, the GI50 in test [19] is > 100 µM (inactive).
`OCc1cc2c(cn1)[nH]c1ccc(NCc3ccccc3)cc12`: the GI50 in [1] was 17.8 µM (inactive); in test [2] it was 20 µM (inactive); in [3], 26.5 µM (inactive); in [4], 24.8 µM (inactive); in test [5], 20.7 µM (inactive); in test [6] it was 22.3 µM (inactive). Also, the GI50 in test [7] was 27.7 µM (inactive); in test [8], 29.4 µM (inactive); in test [9], 27.2 µM; in [10], 20.5 µM (inactive); in test [11], 37.3 µM (inactive); in test [12], 40.2 µM (inactive). Further, the GI50 was 18.6 µM (inactive) in test [13]; 16.4 µM (inactive) in [14]; 12.2 µM (inactive) in [15]; 28.4 µM (inactive) in test [16]; 28.7 µM (inactive) in [17]; 16.1 µM (inactive) in test [18]. For the same molecule, in test [19], the GI50 was 23 µM (inactive).
In the case of `O=[N+]([O-])c1ccc(/C=N/C23CC4CC(CC(C4)C2)C3)cc1`, the GI50 in test [1], in [2], in [3], in test [4], in test [5] and in test [6] was > 100 µM (inactive) each time. Further, the GI50 was > 100 µM (inactive) in test [7]; > 100 µM (inactive) in test [8]; > 100 µM in [9]; > 100 µM (inactive) in [10]; > 100 µM (inactive) in test [11]; > 100 µM (inactive) in test [12]. Besides, the GI50 in [13] is > 100 µM (inactive); in [14], > 100 µM (inactive); in [16], 85.7 µM (inactive); in test [17] it was > 100 µM (inactive); in test [18], > 100 µM (inactive); in test [19] it was 54.7 µM (inactive).
Regarding `CCCOP(=S)(N1CC1)N1CC1`, the GI50 in [1], in test [2], in [3], in test [4], in test [5] and in [6] was > 100 µM (inactive) throughout. The GI50 in test [7] was > 100 µM (inactive); in [8] it was > 100 µM (inactive); in test [9], > 100 µM; in [10], > 100 µM (inactive); in test [11] it was > 100 µM (inactive); in [12], > 100 µM (inactive). Moreover, the GI50 in [13], in [14], in [15], in [16], in [17] and in [18] was > 100 µM (inactive) in each case. Moreover, the GI50 in test [19] is > 100 µM (inactive).
With `COc1ccc(Cc2c3cc(O)c([O-])cc3cc[n+]2C)cc1`, the GI50 in test [1] is 42 µM (inactive); in test [2] it was 6.93 µM (inactive); in [3], 51.3 µM (inactive); in test [4] it was 42.6 µM (inactive); in test [5], 9.95 µM (inactive); in [6], 19.9 µM (inactive). For the same molecule, the GI50 in test [7] was 33.7 µM (inactive); in test [8], 29 µM (inactive); in [10], 13.5 µM (inactive); in [11], 35 µM (inactive); in [12], 65.9 µM (inactive); in test [13], 40.2 µM (inactive). For the same molecule, the GI50 in [14] is 19.4 µM (inactive); in [15], 20.6 µM (inactive); in [16], 13.3 µM (inactive); in [17], 30.7 µM (inactive); in test [18] it was 22.3 µM (inactive); in [19], 6.61 µM (inactive).
For the molecule `N#CC(C(=O)Nc1ccccc1)C1=C(Cl)C(=O)c2ccccc2C1=O` (stereo not drawn), the GI50 in test [1] is 47.1 µM (inactive); in [3], 16.9 µM (inactive); in test [4], 18.1 µM (inactive); in test [5], 13.9 µM (inactive); in [6], 17.9 µM (inactive); in [7], 17.6 µM (inactive). The GI50 is 18.9 µM (inactive) in test [8]; 18.5 µM in test [9]; 15.7 µM (inactive) in test [10]; 17.7 µM (inactive) in test [11]; 16.3 µM (inactive) in [12]; 21.5 µM (inactive) in test [13]. Moreover, the GI50 is 14.2 µM (inactive) in [14]; 16.1 µM (inactive) in test [15]; 15.7 µM (inactive) in [16]; 13.8 µM (inactive) in test [17]; 17.1 µM (inactive) in test [18]; 13.6 µM (inactive) in test [19].
Consider `O=C1c2c(c3c4ccccc4n(CC4CO4)c3c3[nH]c4ccccc4c23)C(=O)N1Cc1ccccc1` (stereo not drawn), for which the GI50 in [1] was 31.9 µM (inactive); in [3] it was 33 µM (inactive); in test [4], > 100 µM (inactive); in [5] it was > 100 µM (inactive); in [6] it was > 100 µM (inactive); in test [7] it was > 100 µM (inactive). Besides, the GI50 in test [8] was 48.2 µM (inactive); in [9], > 100 µM; in [10], > 100 µM (inactive); in test [11], > 100 µM (inactive); in test [12], > 100 µM (inactive); in test [13], > 100 µM (inactive). Besides, the GI50 is > 100 µM (inactive) in test [14]; > 10 µM (inactive) in [15]; > 100 µM (inactive) in test [16]; > 100 µM (inactive) in test [17]; > 100 µM (inactive) in [18]; 95.7 µM (inactive) in test [19].
For the molecule `CC1=CC=C2C(C)(C)CC[C@@H]3OC(=O)[C@H]1[C@]23C`, the GI50 in test [1], in test [2], in [3], in test [4], in [5] and in test [6] was > 100 µM (inactive) throughout. Further, the GI50 in test [7] is > 100 µM (inactive); in test [8], > 100 µM (inactive); in test [10], > 100 µM (inactive); in test [11], > 100 µM (inactive); in [12], 15.5 µM (inactive); in test [13] it was > 100 µM (inactive). Also, the GI50 in test [14], in test [15], in test [16], in [17], in test [18] and in test [19] was > 100 µM (inactive) in each case.
For the molecule `CC1=CC(=O)CC2(C)CC[C@@H]3C[C@]12OC3(C)C` (stereo partly drawn), the GI50 in [1], in [2], in [3], in test [4], in [5] and in test [6] was > 100 µM (inactive) throughout. Moreover, the GI50 in test [7] is > 100 µM (inactive); in test [8], > 100 µM (inactive); in [9] it was > 100 µM; in test [10] it was > 100 µM (inactive); in test [11], > 100 µM (inactive); in [12], > 100 µM (inactive). Also, the GI50 in test [13], in test [14], in [15], in [16], in test [17] and in test [18] was > 100 µM (inactive) in each case. Also, the GI50 in [19] is > 100 µM (inactive).
Take `O=C1C2C=CC(n3[nH]c(=O)n(Cc4ccccc4)c3=O)CC2C(=O)N1c1cccc(Cl)c1` (stereo not drawn): the GI50 in test [1], in test [2], in test [3], in test [4], in [5] and in test [6] was > 100 µM (inactive) throughout. For the same molecule, the GI50 in test [7] was > 100 µM (inactive); in test [8] it was > 100 µM (inactive); in test [9] it was > 100 µM; in [10], > 100 µM (inactive); in test [11], > 100 µM (inactive); in test [12] it was > 100 µM (inactive). Moreover, the GI50 in test [13], in [14], in [15], in test [16], in [17] and in test [18] was > 100 µM (inactive) in each case. Further, in test [19], the GI50 was > 100 µM (inactive).
With `O=c1oc2ccccc2c(-c2ccc(O)cc2)c1Oc1ccccc1`, the GI50 was 7.71 µM (inactive) in test [1]; 10.2 µM (inactive) in test [2]; 20.4 µM (inactive) in [3]; 7.21 µM (inactive) in test [4]; 7.73 µM (inactive) in [5]; 22 µM (inactive) in test [6]. Also, the GI50 is 18.8 µM (inactive) in test [7]; 7.83 µM in [9]; 8.57 µM (inactive) in test [10]; 17.7 µM (inactive) in test [11]; 7.1 µM (inactive) in [12]; 23.6 µM (inactive) in [13]. Also, the GI50 was 20 µM (inactive) in test [14]; 14.1 µM (inactive) in test [15]; 9.93 µM (inactive) in test [16]; 2.58 µM (inactive) in [17]; 18.8 µM (inactive) in test [18]; 34.6 µM (inactive) in test [19].
